For one assay, the target named is T1, Nek7^SRS (Homo sapiens, UniProt Q8TDX7, L180F/L86H/Y97F).
T1 construct: Nek7 strong R-spine mutant, C-terminal non-cleavable His6-tag
Nature of the assay: X-ray co-crystal structure, […] Å; IC50 from LabChip EZ Reader kinase assay. It counts as biochemical.

The target in another assay is T2, Nek7^WT (Homo sapiens, UniProt Q8TDX7).
T2 construct: wild-type Nek7, C-terminal non-cleavable His6-tag
The assay is described as above. Format: biochemical.

T2 sequence (Q8TDX7 whole entry): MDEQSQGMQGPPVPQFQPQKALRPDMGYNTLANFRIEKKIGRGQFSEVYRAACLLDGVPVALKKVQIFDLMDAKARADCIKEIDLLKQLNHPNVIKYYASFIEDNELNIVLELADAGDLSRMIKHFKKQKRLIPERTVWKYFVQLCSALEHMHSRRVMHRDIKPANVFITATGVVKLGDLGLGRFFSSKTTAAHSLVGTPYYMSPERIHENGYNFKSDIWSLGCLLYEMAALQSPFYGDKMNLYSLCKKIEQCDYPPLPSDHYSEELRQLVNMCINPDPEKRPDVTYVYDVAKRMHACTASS
T1 sequence (Q8TDX7 whole entry L86H/Y97F/L180F): as the sequence (Q8TDX7 whole entry) above, with L86H, Y97F, L180F counted along it

Take `CN(C)CCCNS(=O)(=O)c1cccc(Nc2nc(OCC3CCCCC3)c3nc[nH]c3n2)c1` [compound 51]: the IC50 (usually the concentration that gives 50% inhibition) against Nek7^SRS came out at 40.1 µM; against Nek7^WT it was 79 µM.

These data come from paper PMC7200626, “Nek7 conformational flexibility and inhibitor binding probed through protein engineering of the R-spine” (Biochemical Journal, 2020).
